{"source": "patent US20240254118A1", "about": "“PRMT5 INHIBITORS AND USES THEREOF” (Gilead Sciences, Inc., priority 2022, published 2024)", "test_system": "HCT116 MTAP-deleted cells", "experiment": "Cell viability assay (CellTiter-Glo, 7 days), HCT116 MTAP-deleted", "conditions": "Homo sapiens, HCT-116, 168 h"}
{"molecule": "CC(=O)N(C)N(Cc1ccc(-c2cnn(C(F)F)c2)nc1F)C(=O)c1ccc2nc(N)c3cnn(C)c3c2c1", "note": "[Example 348, N′-acetyl-4-amino-N-((6-(1-(difluoromethyl)-1H-pyrazol-4-yl)-2-fluoropyridin-3-yl)methyl)-N′,1-dimethyl-1H-pyrazolo[4,3-c]quinoline-8-carbohydrazide]", "values": [{"measurement": "CC50", "value": "< 100", "unit": "nM"}]}
{"molecule": "CC(=O)N(C)N(Cc1ccc(C#N)cc1C(F)(F)F)C(=O)c1ccc2nc(N)c3cnn(C)c3c2c1", "note": "[Example 407, N′-acetyl-4-amino-N-(4-cyano-2-(trifluoromethyl)benzyl)-N′,1-dimethyl-1H-pyrazolo[4,3-c]quinoline-8-carbohydrazide]", "values": [{"measurement": "CC50", "value": "100 to 1000", "unit": "nM"}]}
{"molecule": "CC(=O)N(C)N(Cc1ccc(-c2cnc(C(F)(F)F)s2)cc1F)C(=O)c1ccc2nc(N)c3cnn(C)c3c2c1", "note": "[Example 217, N′-acetyl-4-amino-N-(2-fluoro-4-(2-(trifluoromethyl)thiazol-5-yl)benzyl)-N′,1-dimethyl-1H-pyrazolo[4,3-c]quinoline-8-carbohydrazide]", "values": [{"measurement": "CC50", "value": "< 100", "unit": "nM"}]}
{"molecule": "Nc1nc2ccc(C(=O)N(Cc3nc4ccc(Cl)cc4[nH]3)N3CCCC3=O)cc2c2ccccc12", "note": "[Example 124, 6-amino-N-((6-chloro-1H-benzo[d]imidazol-2-yl)methyl)-N-(2-oxopyrrolidin-1-yl)phenanthridine-2-carboxamide]", "values": [{"measurement": "CC50", "value": "100 to 1000", "unit": "nM"}]}
{"molecule": "CN(C(=O)C1CC1)N(Cc1cc2cc(C(F)(F)F)ccn2n1)C(=O)c1ccc2nc(N)c3cnn(C)c3c2c1", "note": "[Example 404, 4-amino-N′-(cyclopropanecarbonyl)-N′,1-dimethyl-N-((5-(trifluoromethyl)pyrazolo[1,5-a]pyridin-2-yl)methyl)-1H-pyrazolo[4,3-c]quinoline-8-carbohydrazide]", "values": [{"measurement": "CC50", "value": "< 100", "unit": "nM"}]}
{"molecule": "CC(=O)N(C)N(Cc1c(F)cc2c(ccn2C)c1F)C(=O)c1ccc2nc(N)c3cnn(C)c3c2c1", "note": "[Example 411, N′-acetyl-4-amino-N-((4,6-difluoro-1-methyl-1H-indol-5-yl)methyl)-N′,1-dimethyl-1H-pyrazolo[4,3-c]quinoline-8-carbohydrazide]", "values": [{"measurement": "CC50", "value": "< 100", "unit": "nM"}]}
{"molecule": "CC(=O)N(C)N(Cc1ccc(C(F)(F)F)cc1C)C(=O)c1ccc2nc(N)c3cnn(C)c3c2c1", "note": "[Example 410, N′-acetyl-4-amino-N′,1-dimethyl-N-(2-methyl-4-(trifluoromethyl)benzyl)-1H-pyrazolo[4,3-c]quinoline-8-carbohydrazide]", "values": [{"measurement": "CC50", "value": "< 100", "unit": "nM"}]}
{"molecule": "CC(=O)N(C)N(Cc1c(F)cc(-c2cnn(C)c2)cc1F)C(=O)c1ccc2nc(N)c3cnn(C)c3c2c1", "note": "[Example 380, N′-acetyl-4-amino-N-[[2,6-difluoro-4-(1-methylpyrazol-4-yl)phenyl]methyl]-N′,1-dimethyl-pyrazolo[4,3-c]quinoline-8-carbohydrazide]", "values": [{"measurement": "CC50", "value": "< 100", "unit": "nM"}]}
{"molecule": "CC(=O)N(C)N(Cc1ccc(-c2cnn(C(F)F)c2)cc1C#N)C(=O)c1ccc2nc(N)c3cnn(C)c3c2c1", "note": "[Example 252, N′-acetyl-4-amino-N-(2-cyano-4-(1-(difluoromethyl)-1H-pyrazol-4-yl)benzyl)-N′,1-dimethyl-1H-pyrazolo[4,3-c]quinoline-8-carbohydrazide]", "values": [{"measurement": "CC50", "value": "< 100", "unit": "nM"}]}
{"molecule": "CN(C(=O)C1CC1)N(Cc1ccc(OC(F)F)cc1F)C(=O)c1ccc2nc(N)c3cnn(C)c3c2c1", "note": "[Example 317, 4-amino-N′-(cyclopropanecarbonyl)-N-(4-(difluoromethoxy)-2-fluorobenzyl)-N′,1-dimethyl-1H-pyrazolo[4,3-c]quinoline-8-carbohydrazide]", "values": [{"measurement": "CC50", "value": "< 100", "unit": "nM"}]}
{"molecule": "CN(C(=O)C1CC1)N(Cc1ncc(C(F)(F)F)cc1Cl)C(=O)c1ccc2nc(N)c3cnn(C)c3c2c1", "note": "[Example 446, 4-amino-N-((3-chloro-5-(trifluoromethyl)pyridin-2-yl)methyl)-N′-(cyclopropanecarbonyl)-N′,1-dimethyl-1H-pyrazolo[4,3-c]quinoline-8-carbohydrazide]", "values": [{"measurement": "CC50", "value": "< 100", "unit": "nM"}]}
{"molecule": "CC(=O)N(C)N(Cc1c(F)cc(Cl)cc1F)C(=O)c1ccc2nc(N)c3cnn(C)c3c2c1", "note": "[Example 367, N′-acetyl-4-amino-N-(4-chloro-2,6-difluorobenzyl)-N′,1-dimethyl-1H-pyrazolo[4,3-c]quinoline-8-carbohydrazide]", "values": [{"measurement": "CC50", "value": "< 100", "unit": "nM"}]}
{"molecule": "Cn1ncc2c(N)nc3cc(F)c(C(=O)N(Cc4ccc(C(F)(F)F)cn4)N4CCOC5(CC5)C4)cc3c21", "note": "[Example 284, 4-amino-7-fluoro-1-methyl-N-(4-oxa-7-azaspiro[2.5]octan-7-yl)-N-((5-(trifluoromethyl)pyridin-2-yl)methyl)-1H-pyrazolo[4,3-c]quinoline-8-carboxamide]", "values": [{"measurement": "CC50", "value": "< 100", "unit": "nM"}]}
{"molecule": "CC(=O)N(C)N(Cc1ccn(-c2ccc(F)cc2)n1)C(=O)c1cc2c(cc1F)nc(N)c1cnn(C)c12", "note": "[Example 425, N′-acetyl-4-amino-7-fluoro-N-((1-(4-fluorophenyl)-1H-pyrazol-3-yl)methyl)-N′,1-dimethyl-1H-pyrazolo[4,3-c]quinoline-8-carbohydrazide]", "values": [{"measurement": "CC50", "value": "< 100", "unit": "nM"}]}
{"molecule": "CC(=O)N(C)N(Cc1ccc2c(c1)c1ccccc1n2C)C(=O)c1ccc2nc(N)c3cnn(C)c3c2c1", "note": "[Example 412, N′-acetyl-4-amino-N′,1-dimethyl-N-((9-methyl-9H-carbazol-3-yl)methyl)-1H-pyrazolo[4,3-c]quinoline-8-carbohydrazide]", "values": [{"measurement": "CC50", "value": "100 to 1000", "unit": "nM"}]}
{"molecule": "[2H]C([2H])([2H])N(C(C)=O)N(Cc1ccc(C(F)(F)F)cc1F)C(=O)c1ccc2nc(N)c3cnn(C)c3c2c1", "note": "[Example 269, N′-acetyl-4-amino-N-(2-fluoro-4-(trifluoromethyl)benzyl)-1-methyl-N′-(methyl-d3)-1H-pyrazolo[4,3-c]quinoline-8-carbohydrazide]", "values": [{"measurement": "CC50", "value": "< 100", "unit": "nM"}]}
{"molecule": "CN(C(=O)C1CC1)N(Cc1ccc2c(c1)OC(F)(F)O2)C(=O)c1cc2c(cc1F)nc(N)c1cnn(C)c12", "note": "[Example 282, 4-amino-N′-(cyclopropanecarbonyl)-N-((2,2-difluorobenzo[d][1,3]dioxol-5-yl)methyl)-7-fluoro-N′,1-dimethyl-1H-pyrazolo[4,3-c]quinoline-8-carbohydrazide]", "values": [{"measurement": "CC50", "value": "< 100", "unit": "nM"}]}
{"molecule": "CC(=O)N(C)N(Cc1cc(F)c(C(F)(F)F)cc1F)C(=O)c1ccc2nc(N)c3cnn(C)c3c2c1", "note": "[Example 368, N′-acetyl-4-amino-N-(2,5-difluoro-4-(trifluoromethyl)benzyl)-N′, 1-dimethyl-1H-pyrazolo[4,3-c]quinoline-8-carbohydrazide]", "values": [{"measurement": "CC50", "value": "< 100", "unit": "nM"}]}
{"molecule": "CN(C(=O)C1CC1)N(Cc1ccc(-c2ccc(C(F)(F)F)s2)cn1)C(=O)c1ccc2nc(N)c3cnn(C)c3c2c1", "note": "[Example 369, 4-amino-N′-(cyclopropanecarbonyl)-N′,1-dimethyl-N-((5-(5-(trifluoromethyl)thiophen-2-yl)pyridin-2-yl)methyl)-1H-pyrazolo[4,3-c]quinoline-8-carbohydrazide]", "values": [{"measurement": "CC50", "value": "< 100", "unit": "nM"}]}
{"molecule": "CC(=O)N(C)N(Cc1ccn(-c2c(F)cccc2F)n1)C(=O)c1ccc2nc(N)c3cnn(C)c3c2c1", "note": "[Example 441, N′-acetyl-4-amino-N-((1-(2,6-difluorophenyl)-1H-pyrazol-3-yl)methyl)-N′,1-dimethyl-1H-pyrazolo[4,3-c]quinoline-8-carbohydrazide]", "values": [{"measurement": "CC50", "value": "< 100", "unit": "nM"}]}
{"molecule": "CN(C(=O)C1CC1)N(Cc1ccc(-c2ccsn2)cc1F)C(=O)c1ccc2nc(N)c3cnn(C)c3c2c1", "note": "[Example 239, 4-amino-N′-(cyclopropanecarbonyl)-N-(2-fluoro-4-(isothiazol-3-yl)benzyl)-N′,1-dimethyl-1H-pyrazolo[4,3-c]quinoline-8-carbohydrazide]", "values": [{"measurement": "CC50", "value": "< 100", "unit": "nM"}]}
{"molecule": "CC(=O)N(C)N(Cc1c(F)cc(-c2cnn(C(F)F)c2)cc1F)C(=O)c1ccc2nc(N)c3cnn(C)c3c2c1", "note": "[Example 379, N′-acetyl-4-amino-N-[[4-[1-(difluoromethyl)pyrazol-4-yl]-2,6-difluoro-phenyl]methyl]-N′,1-dimethyl-pyrazolo[4,3-c]quinoline-8-carbohydrazide]", "values": [{"measurement": "CC50", "value": "< 100", "unit": "nM"}]}
{"molecule": "CN(C(=O)C1CC1)N(Cc1ccc(C2CC2)cn1)C(=O)c1ccc2nc(N)c3cnn(C)c3c2c1", "note": "[Example 357, 4-amino-N′-(cyclopropanecarbonyl)-N-((5-cyclopropylpyridin-2-yl)methyl)-N′,1-dimethyl-1H-pyrazolo[4,3-c]quinoline-8-carbohydrazide]", "values": [{"measurement": "CC50", "value": "< 100", "unit": "nM"}]}
{"molecule": "[2H]C([2H])([2H])N(C(=O)C1CC1)N(Cc1ncc(C(F)(F)F)cc1F)C(=O)c1ccc2nc(N)c3cnn(C)c3c2c1", "note": "[Example 268, 4-amino-N′-(cyclopropanecarbonyl)-N-((3-fluoro-5-(trifluoromethyl)pyridin-2-yl)methyl)-1-methyl-N′-(methyl-d3)-1H-pyrazolo[4,3-c]quinoline-8-carbohydrazide]", "values": [{"measurement": "CC50", "value": "< 100", "unit": "nM"}]}
{"molecule": "CC(=O)N(C)N(Cc1nc(-c2ccccc2)cs1)C(=O)c1ccc2nc(N)c3cnn(C)c3c2c1", "note": "[Example 429, N′-acetyl-4-amino-N′,1-dimethyl-N-((4-phenylthiazol-2-yl)methyl)-1H-pyrazolo[4,3-c]quinoline-8-carbohydrazide]", "values": [{"measurement": "CC50", "value": "< 100", "unit": "nM"}]}
{"molecule": "CN(C(=O)C1CC1)N(Cc1ccc(-c2ccn(C(F)F)n2)cc1F)C(=O)c1ccc2nc(N)c3cnn(C)c3c2c1", "note": "[Example 312, 4-amino-N′-(cyclopropanecarbonyl)-N-(4-(1-(difluoromethyl)-1H-pyrazol-3-yl)-2-fluorobenzyl)-N′,1-dimethyl-1H-pyrazolo[4,3-c]quinoline-8-carbohydrazide]", "values": [{"measurement": "CC50", "value": "< 100", "unit": "nM"}]}
{"molecule": "CC(=O)N(C)N(Cc1ccn(-c2ccc(C(F)(F)F)cc2)n1)C(=O)c1ccc2nc(N)c3cnn(C)c3c2c1", "note": "[Example 417, N′-acetyl-4-amino-N′,1-dimethyl-N-((1-(4-(trifluoromethyl)phenyl)-1H-pyrazol-3-yl)methyl)-1H-pyrazolo[4,3-c]quinoline-8-carbohydrazide]", "values": [{"measurement": "CC50", "value": "< 100", "unit": "nM"}]}
{"molecule": "CN(C(=O)C1CC1)N(Cc1ccc(-c2cnn(C)c2)cn1)C(=O)c1ccc2nc(N)c3cnn(C)c3c2c1", "note": "[Example 356, 4-amino-N′-(cyclopropanecarbonyl)-N′,1-dimethyl-N-((5-(1-methyl-1H-pyrazol-4-yl)pyridin-2-yl)methyl)-1H-pyrazolo[4,3-c]quinoline-8-carbohydrazide]", "values": [{"measurement": "CC50", "value": "100 to 1000", "unit": "nM"}]}
{"molecule": "CC(=O)N(C)N(Cc1cnc(-c2ccccc2)n1C)C(=O)c1ccc2nc(N)c3cnn(C)c3c2c1", "note": "[Example 433, N′-acetyl-4-amino-N′,1-dimethyl-N-((1-methyl-2-phenyl-1H-imidazol-5-yl)methyl)-1H-pyrazolo[4,3-c]quinoline-8-carbohydrazide]", "values": [{"measurement": "CC50", "value": "< 100", "unit": "nM"}]}
